Tests used:
Assay type in all cases: biochemical
Settings in all cases: 10 μM ATP, 60 min, ADP-GLO luminescence
AXL = target: T1, AXL (Homo sapiens, UniProt P30530); experiment: Enzymatic assay (ADP-Glo kinase reaction), AXL
T1 sequence (P30530 26-894): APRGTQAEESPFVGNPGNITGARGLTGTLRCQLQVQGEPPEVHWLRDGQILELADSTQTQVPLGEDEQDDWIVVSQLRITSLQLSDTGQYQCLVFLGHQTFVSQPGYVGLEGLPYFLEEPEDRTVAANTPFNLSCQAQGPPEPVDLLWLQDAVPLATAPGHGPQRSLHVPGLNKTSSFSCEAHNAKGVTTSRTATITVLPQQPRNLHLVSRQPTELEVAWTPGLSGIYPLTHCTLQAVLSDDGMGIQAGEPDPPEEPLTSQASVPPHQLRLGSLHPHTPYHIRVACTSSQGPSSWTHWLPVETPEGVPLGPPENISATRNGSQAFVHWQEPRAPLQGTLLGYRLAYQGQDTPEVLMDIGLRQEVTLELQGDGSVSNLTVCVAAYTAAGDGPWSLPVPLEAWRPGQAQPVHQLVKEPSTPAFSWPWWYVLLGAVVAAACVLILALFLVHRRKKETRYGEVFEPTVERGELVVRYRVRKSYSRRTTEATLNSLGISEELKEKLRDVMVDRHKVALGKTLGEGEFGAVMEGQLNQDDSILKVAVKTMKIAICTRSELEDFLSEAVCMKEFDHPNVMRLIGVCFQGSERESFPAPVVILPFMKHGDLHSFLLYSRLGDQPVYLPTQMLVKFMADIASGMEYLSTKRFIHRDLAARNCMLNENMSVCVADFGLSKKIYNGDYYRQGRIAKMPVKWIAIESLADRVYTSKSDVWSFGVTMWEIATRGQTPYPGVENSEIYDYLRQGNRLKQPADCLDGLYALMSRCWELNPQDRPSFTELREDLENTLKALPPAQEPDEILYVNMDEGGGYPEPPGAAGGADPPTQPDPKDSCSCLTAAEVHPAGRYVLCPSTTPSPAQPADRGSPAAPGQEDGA
Procedure: (§1) All the kinase reactions were performed in 5 μL using tyrosine kinase buffer with 0.2 μg/μL poly (Glu4, Tyr1) substrate, 10 μM ATP, serial dilution of the inhibitor, and incubated at room temperature for 60 min. After the indicated incubation times, 5 μL ADP-GLO™ reagent (Promega, Madison, WI) was added to the reactions and the plate was incubated at room temperature for 40 min. […] All 384-well assay plates were read using a GLOMAX™ Discover Microplate Luminometer from Promega (Madison, WI). To plot, analyze the data and calculate all kinase reaction biochemical values, both Microsoft Excel and Prism from GraphPad 7 Software (La Jolla, CA) were used.

MER = target: T2, MER (Homo sapiens, UniProt Q12866); experiment: Enzymatic assay (ADP-Glo kinase reaction), MER
T2 sequence (Q12866 21-999): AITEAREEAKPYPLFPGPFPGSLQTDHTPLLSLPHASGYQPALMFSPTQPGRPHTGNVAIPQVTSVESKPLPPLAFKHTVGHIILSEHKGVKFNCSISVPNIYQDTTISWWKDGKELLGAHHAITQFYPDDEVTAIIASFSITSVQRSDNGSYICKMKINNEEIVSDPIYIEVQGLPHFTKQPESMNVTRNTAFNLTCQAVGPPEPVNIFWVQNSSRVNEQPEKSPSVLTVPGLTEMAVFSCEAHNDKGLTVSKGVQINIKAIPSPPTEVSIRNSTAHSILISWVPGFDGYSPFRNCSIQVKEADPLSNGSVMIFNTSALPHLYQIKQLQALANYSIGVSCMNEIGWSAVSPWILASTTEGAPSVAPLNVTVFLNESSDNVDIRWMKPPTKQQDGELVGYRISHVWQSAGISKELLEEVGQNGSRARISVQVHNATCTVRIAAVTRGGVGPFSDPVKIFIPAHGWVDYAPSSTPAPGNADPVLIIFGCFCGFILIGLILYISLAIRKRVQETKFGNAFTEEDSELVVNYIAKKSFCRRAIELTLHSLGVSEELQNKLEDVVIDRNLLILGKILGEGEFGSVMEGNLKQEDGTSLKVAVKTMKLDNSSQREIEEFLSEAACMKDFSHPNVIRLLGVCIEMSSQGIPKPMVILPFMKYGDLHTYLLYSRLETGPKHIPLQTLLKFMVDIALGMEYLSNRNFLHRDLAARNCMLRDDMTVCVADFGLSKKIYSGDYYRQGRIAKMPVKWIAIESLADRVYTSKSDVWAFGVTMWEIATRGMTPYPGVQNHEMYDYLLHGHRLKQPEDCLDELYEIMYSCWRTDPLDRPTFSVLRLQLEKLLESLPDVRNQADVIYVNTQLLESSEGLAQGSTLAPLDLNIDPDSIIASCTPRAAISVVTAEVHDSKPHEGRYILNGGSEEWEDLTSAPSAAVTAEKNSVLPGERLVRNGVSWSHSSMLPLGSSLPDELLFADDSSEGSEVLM
Procedure: (§2) All the kinase reactions were performed in 5 μL using tyrosine kinase buffer with 0.2 μg/μL poly (Glu4, Tyr1) substrate, 10 μM ATP, serial dilution of the inhibitor, and incubated at room temperature for 60 min. After the indicated incubation times, 5 μL ADP-GLO™ reagent (Promega, Madison, WI) was added to the reactions and the plate was incubated at room temperature for 40 min. Then, 10 μL of kinase detection reagent was added and after an incubation time of 40 min, luminescence was recorded and IC50 values were determined (Table 1). All 384-well assay plates were read using a GLOMAX™ Discover Microplate Luminometer from Promega (Madison, WI). To plot, analyze the data and calculate all kinase reaction biochemical values, both Microsoft Excel and Prism from GraphPad 7 Software (La Jolla, CA) were used.
as §2, with “3).” for “1).”

c-MET = c-MET (Homo sapiens, UniProt P08581); experiment: Enzymatic assay (ADP-Glo kinase reaction), c-MET
Procedure: as §1

c-MET, sequence (P08581 25-1390): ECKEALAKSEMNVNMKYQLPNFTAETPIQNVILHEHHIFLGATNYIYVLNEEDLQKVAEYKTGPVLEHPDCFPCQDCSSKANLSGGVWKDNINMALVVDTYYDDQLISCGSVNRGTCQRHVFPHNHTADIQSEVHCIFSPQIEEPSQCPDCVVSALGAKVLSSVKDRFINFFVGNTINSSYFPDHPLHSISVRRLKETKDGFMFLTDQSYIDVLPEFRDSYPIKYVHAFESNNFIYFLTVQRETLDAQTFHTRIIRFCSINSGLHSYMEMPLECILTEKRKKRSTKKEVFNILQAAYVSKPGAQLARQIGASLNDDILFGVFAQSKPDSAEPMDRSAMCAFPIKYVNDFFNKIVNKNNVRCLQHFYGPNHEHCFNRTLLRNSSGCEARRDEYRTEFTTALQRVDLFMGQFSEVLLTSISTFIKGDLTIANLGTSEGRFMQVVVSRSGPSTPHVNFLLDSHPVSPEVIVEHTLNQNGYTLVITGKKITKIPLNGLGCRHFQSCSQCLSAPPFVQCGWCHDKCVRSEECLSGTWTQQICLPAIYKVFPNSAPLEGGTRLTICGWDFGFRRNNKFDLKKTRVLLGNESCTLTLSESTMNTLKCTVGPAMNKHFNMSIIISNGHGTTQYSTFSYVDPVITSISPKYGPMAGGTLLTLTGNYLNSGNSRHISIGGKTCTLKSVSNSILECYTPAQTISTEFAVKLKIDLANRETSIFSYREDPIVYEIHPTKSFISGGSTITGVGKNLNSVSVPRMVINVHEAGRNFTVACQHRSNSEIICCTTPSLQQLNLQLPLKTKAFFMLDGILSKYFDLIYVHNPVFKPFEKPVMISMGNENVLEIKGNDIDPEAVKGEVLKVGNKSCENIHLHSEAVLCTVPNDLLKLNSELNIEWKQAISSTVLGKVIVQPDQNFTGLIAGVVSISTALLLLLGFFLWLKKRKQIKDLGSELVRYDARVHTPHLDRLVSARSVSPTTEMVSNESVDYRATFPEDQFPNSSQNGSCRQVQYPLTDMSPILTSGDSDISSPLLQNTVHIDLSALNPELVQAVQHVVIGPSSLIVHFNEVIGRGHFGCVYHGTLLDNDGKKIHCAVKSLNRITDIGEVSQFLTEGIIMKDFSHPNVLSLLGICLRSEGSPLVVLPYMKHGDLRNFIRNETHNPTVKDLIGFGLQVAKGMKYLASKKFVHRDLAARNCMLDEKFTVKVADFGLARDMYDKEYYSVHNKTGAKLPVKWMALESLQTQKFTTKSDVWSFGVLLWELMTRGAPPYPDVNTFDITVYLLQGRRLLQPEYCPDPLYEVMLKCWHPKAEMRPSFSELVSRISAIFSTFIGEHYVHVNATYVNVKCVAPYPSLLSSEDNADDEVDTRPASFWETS

Structure (SMILES)	IC50 (AXL)	IC50 (MER)	IC50 (c-MET)
COCCN1CCN(C(=O)CCc2c(Oc3ccc(NC(=O)c4cn(C(C)C)c(=O)n(-c5ccc(F)cc5)c4=O)cc3F)ccnc2N)CC1 [Example 21, N-(4-(2-amino-3-(3-(4-(2-methoxyethyl)piperazin-1-yl)-3-oxopropyl)pyridin-4-yloxy)-3-fluorophenyl)-3-(4-fluorophenyl)-1-isopropyl-2,4-dioxo-1,2,3,4-tetrahydropyrimidine-5-carboxamide]	< 1000 nM	< 1000 nM	< 10000 nM
CN1CCC(CC#Cc2c(Oc3ccc(NC(=O)c4nn(C)c(=O)n(-c5ccc(F)cc5)c4=O)cc3F)ccnc2N)CC1 [Example 45, N-(4-((2-amino-3-(3-(1-methylpiperidin-4-yl)prop-1-yn-1-yl)pyridin-4-yl)oxy)-3-fluorophenyl)-4-(4-fluorophenyl)-2-methyl-3,5-dioxo-2,3,4,5-tetrahydro-1,2,4-triazine-6-carboxamide]	< 100 nM	< 100 nM	< 1000 nM
CC(C)n1cc(C(=O)Nc2ccc(Oc3ccnc(N)c3C#CC3CCN(C)CC3)c(F)c2)c(=O)n(-c2ccc(F)cc2)c1=O [Example 23, N-(4-(2-amino-3-((1-methylpiperidin-4-yl)ethynyl)pyridin-4-yloxy)-3-fluorophenyl)-3-(4-fluorophenyl)-1-isopropyl-2,4-dioxo-1,2,3,4-tetrahydropyrimidine-5-carboxamide]	< 10 nM	< 10 nM	< 1000 nM
COCCN1CCN(C(=O)C#Cc2c(Oc3ccc(NC(=O)c4cn(C(C)C)c(=O)n(-c5ccc(F)cc5)c4=O)cc3F)ccnc2N)CC1 [Example 2, N-(4-(2-amino-3-(3-(4-(2-methoxyethyl)piperazin-1-yl)-3-oxoprop-1-ynyl)pyridin-4-yloxy)-3-fluorophenyl)-3-(4-fluorophenyl)-1-isopropyl-2,4-dioxo-1,2,3,4-teterahydropyrimidine-5-carboxamide]	< 10 nM	< 10 nM	< 10 nM
CN1CCC(CC#Cc2c(Oc3ccc(NC(=O)c4cn(C5CCOCC5)c(=O)n(-c5ccc(F)cc5)c4=O)cc3F)ccnc2N)CC1 [Example 60, N-(4-(2-amino-3-(3-(1-methylpiperidin-4-yl)prop-1-ynyl)pyridin-4-yloxy)-3-fluorophenyl)-3-(4-fluorophenyl)-2,4-dioxo-1-(tetrahydro-2H-pyran-4-yl)-1,2,3,4-tetrahydropyrimidine-5-carboxamide]	< 10 nM	< 10 nM	< 100 nM
CN1CCN(C(C)(C)C#Cc2c(Oc3ccc(NC(=O)c4cn(CC(=O)N(C)C)c(=O)n(-c5ccc(F)cc5)c4=O)cc3F)ccnc2N)CC1 [Example 36, N-(4-((2-amino-3-(3-methyl-3-(4-methylpiperazin-1-yl)but-1-yn-1-yl)pyridin-4-yl)oxy)-3-fluorophenyl)-1-(2-(dimethylamino)-2-oxoethyl)-3-(4-fluorophenyl)-2,4-dioxo-1,2,3,4-tetrahydropyrimidine-5-carboxamide]	< 10000 nM	< 1000 nM	< 10000 nM
Cc1nc(Cn2cc(C(=O)Nc3ccc(Oc4ccnc(N)c4C#CC(C)(C)N4CCN(C)CC4)c(F)c3)c(=O)n(-c3ccc(F)cc3)c2=O)cs1 [Example 42, N-(4-((2-amino-3-(3-methyl-3-(4-methylpiperazin-1-yl)but-1-yn-1-yl)pyridin-4-yl)oxy)-3-fluorophenyl)-3-(4-fluorophenyl)-1-((2-methylthiazol-4-yl)methyl)-2,4-dioxo-1,2,3,4-tetrahydropyrimidine-5-carboxamide]	< 1000 nM	< 100 nM	< 100 nM
Cc1nc(Cn2cc(C(=O)Nc3ccc(Oc4ccnc(N)c4C#CCC4CCN(C)CC4)c(F)c3)c(=O)n(-c3ccc(F)cc3)c2=O)cs1 [Example 43, N-(4-((2-amino-3-(3-(1-methylpiperidin-4-yl)prop-1-yn-1-yl)pyridin-4-yl)oxy)-3-fluorophenyl)-3-(4-fluorophenyl)-1-((2-methylthiazol-4-yl)methyl)-2,4-dioxo-1,2,3,4-tetrahydropyrimidine-5-carboxamide]	< 10 nM	< 10 nM	< 10 nM
Cc1nc(Cn2cc(C(=O)Nc3ccc(Oc4ccnc(N)c4C#CC(C)(C)N4CCOCC4)c(F)c3)c(=O)n(-c3ccc(F)cc3)c2=O)cs1 [Example 39, N-(4-((2-amino-3-(3-methyl-3-morpholinobut-1-yn-1-yl)pyridin-4-yl)oxy)-3-fluorophenyl)-3-(4-fluorophenyl)-1-((2-methylthiazol-4-yl)methyl)-2,4-dioxo-1,2,3,4-tetrahydropyrimidine-5-carboxamide]	< 100 nM	< 100 nM	< 100 nM
CN1CCC(CC#Cc2c(Oc3ccc(NC(=O)c4c[nH]c(=O)n(-c5ccc(F)cc5)c4=O)cc3F)ccnc2N)CC1 [Example 54, N-(4-(2-amino-3-(3-(1-methylpiperidin-4-yl)prop-1-ynyl)pyridin-4-yloxy)-3-fluorophenyl)-3-(4-fluorophenyl)-2,4-dioxo-1,2,3,4-tetrahydropyrimidine-5-carboxamide]	< 10 nM	< 100 nM	< 10 nM
CC(C)n1cc(C(=O)Nc2ccc(Oc3ccnc(N)c3C#CCC3CCNCC3)c(F)c2)c(=O)n(-c2ccc(F)cc2)c1=O [Example 27, N-(4-(2-amino-3-(3-(piperidin-4-yl)prop-1-ynyl)pyridin-4-yloxy)-3-fluorophenyl)-3-(4-fluorophenyl)-1-isopropyl-2,4-dioxo-1,2,3,4-tetrahydropyrimidine-5-carboxamide]	< 10 nM	< 10 nM	< 10 nM

From US20250171426A1, “PYRIMIDINEDIONE-BASED COMPOUNDS AS AXL, C-MET, AND MER INHIBITORS AND METHODS OF USE THEREOF” (CMG Pharmaceutical Co., Ltd., priority 2022, published 2025)
